This is an account of results in patent US20250145665A1, “MACROCYCLIC PEPTIDES USEFUL AS MODULATORS OF TNF ALPHA” (Bristol-Myers Squibb Company, priority 2023, published 2025).

Starred links: 1 amine or outer side, 2 acyl side, 3 side chain; linkers in the order of their positions; H or OH if unused. Positions of bridges follow the written chain, without caps; N, C: chain ends. Non-standard residues stand in square brackets, D forms with d. Residues, ends and D or L forms follow the SMILES beside them. *: point of attachment. Bip(4'-(3-HOOC-benzamido)) = N[C@@H](Cc1ccc(-c2ccc(NC(=O)c3cccc(C(=O)O)c3)cc2)cc1)C(=O)O; Bip(4'-NHBz) = N[C@@H](Cc1ccc(-c2ccc(NC(=O)c3ccccc3)cc2)cc1)C(=O)O; Bip(4'-NH) = O=C([C@H](Cc1ccc(-c2ccc(N[*:3])cc2)cc1)N[*:1])[*:2]; Indazole3carbonyl(1-CH2COOH) = O=C(O)Cn1nc(C(=O)*)c2ccccc21; Bip(4'-COOH) = N[C@@H](Cc1ccc(-c2ccc(C(=O)O)cc2)cc1)C(=O)O; X63 = N=C(NCCC[C@@H](N[*:1])C(=O)[*:2])NCCc1cccc(O)c1; X51 = N=C(NCCC[C@@H](N[*:1])C(=O)[*:2])NCCc1ccccc1; Ala(morpholin-4-yl) = N[C@@H](CN1CCOCC1)C(=O)O; Benzoyl(3-OCH2COOH) = O=C(O)COc1cccc(C(=O)*)c1; Phe(3-CONH2) = NC(=O)c1cccc(C[C@H](N)C(=O)O)c1; Bip = N[C@@H](Cc1ccc(-c2ccccc2)cc1)C(=O)O; Tiq1c(1S) = O=C(O)[C@H]1NCCc2ccccc21; 2Pal = N[C@@H](Cc1ccccn1)C(=O)O; Tic = O=C(O)[C@@H]1Cc2ccccc2CN1; Cha = N[C@@H](CC1CCCCC1)C(=O)O; Tle = CC(C)(C)[C@H](N)C(=O)O; Aze = O=C(O)[C@@H]1CCN1; Sar = CNCC(=O)O Where only a bound is given, the exact number is not on record here.

A word on the IC50: it is the midpoint of a concentration-inhibition curve.

Chain of TNFα (P01375 77-233 limits assumed): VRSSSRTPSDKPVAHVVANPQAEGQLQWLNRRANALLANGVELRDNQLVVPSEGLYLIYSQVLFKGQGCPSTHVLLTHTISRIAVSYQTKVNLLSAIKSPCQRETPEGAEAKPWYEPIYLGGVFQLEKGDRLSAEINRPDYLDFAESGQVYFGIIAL

One assay addresses TNFα (Homo sapiens, UniProt P01375). Kind of assay: TNF-Induced HEK-Blue Assay. It is filed as cell-based.
Conditions: not given
Take `CC[C@H](C)[C@@H]1NC(=O)[C@@H]2CCN2C(=O)[C@H]([C@@H](C)CC)NC(=O)[C@@H](CCCNC(=N)N)NC(=O)[C@H](CC(=O)O)NC(=O)[C@H](Cc2ccc(O)cc2)NC(=O)CN(C)C(=O)[C@H](Cc2ccc(-c3ccc(NC(=O)c4nn(CC(=O)O)c5ccccc45)cc3)cc2)NC(=O)[C@H](Cc2ccc(-c3ccccc3)cc2)NC(=O)[C@H](C(C)(C)C)NC(=O)CSC[C@@H](C(=O)NCC(N)=O)NC(=O)[C@H](CC(C)C)NC(=O)[C@H](Cc2ccc(O)cc2)NC1=O` [Example 357] ({CH2CO}-[Tle][Bip][Bip(4'-NH)](Indazole3carbonyl(1-CH2COOH))[Sar]YD[dR]I[Aze]IYLCG-NH2; thioether N-13): the concentration for half-maximal inhibition (IC50) lay within 50 to 200 nM.

As to `CC[C@H](C)[C@@H]1NC(=O)[C@@H]2CCCN2C(=O)[C@H]([C@@H](C)CC)NC(=O)[C@@H](CCCNC(=N)N)NC(=O)[C@H](CC(=O)O)NC(=O)[C@H](Cc2ccccc2)NC(=O)CN(C)C(=O)[C@H](Cc2ccc(-c3ccc(NC(=O)c4nn(CC(=O)O)c5ccccc45)cc3)cc2)NC(=O)[C@H](Cc2ccc(-c3ccc(C(=O)O)cc3)cc2)NC(=O)[C@H](C(C)(C)C)NC(=O)CSC[C@@H](C(=O)NCC(N)=O)NC(=O)[C@H](CC(C)C)NC(=O)[C@H](Cc2cnc[nH]2)NC1=O` [Example 359] ({CH2CO}-[Tle][Bip(4'-COOH)][Bip(4'-NH)](Indazole3carbonyl(1-CH2COOH))[Sar]FD[dR]IPIHLCG-NH2; thioether N-13), the IC50 is below 50 nM.

Turning to `CC[C@H](C)[C@@H]1NC(=O)[C@@H](CCCNC(=N)N)NC(=O)[C@H](CC(=O)O)NC(=O)[C@H](Cc2cnc[nH]2)NC(=O)CN(C)C(=O)[C@H](Cc2ccc(-c3ccc(NC(=O)c4nn(CC(=O)O)c5ccccc45)cc3)cc2)NC(=O)[C@H](Cc2ccc(-c3ccc(C(=O)O)cc3)cc2)NC(=O)[C@H](CC2CCCCC2)NC(=O)CSC[C@@H](C(=O)NCC(N)=O)NC(=O)[C@H](CC(C)C)NC(=O)[C@H](Cc2cnc[nH]2)NC(=O)[C@H](C(C)C)NC(=O)[C@@H]2c3ccccc3CCN2C1=O` [Example 360] ({CH2CO}-[Cha][Bip(4'-COOH)][Bip(4'-NH)](Indazole3carbonyl(1-CH2COOH))[Sar]HD[dR]I[Tiq1c(1S)]VHLCG-NH2; thioether N-13), the half-inhibitory concentration (IC50) is below 50 nM.

Compound `CC[C@H](C)[C@@H]1NC(=O)[C@@H](CCCNC(=N)N)NC(=O)[C@H](CC(=O)O)NC(=O)[C@H](Cc2cnc[nH]2)NC(=O)CN(C)C(=O)[C@H](Cc2ccc(-c3ccc(NC(=O)c4nn(CC(=O)O)c5ccccc45)cc3)cc2)NC(=O)[C@H](Cc2ccc(-c3ccc(C(=O)O)cc3)cc2)NC(=O)[C@H](CC2CCCCC2)NC(=O)CSC[C@@H](C(=O)NCC(N)=O)NC(=O)[C@H](CC(C)C)NC(=O)[C@H](Cc2cnc[nH]2)NC(=O)[C@H](C(C)C)NC(=O)[C@@H]2Cc3ccccc3CN2C1=O` [Example 361] ({CH2CO}-[Cha][Bip(4'-COOH)][Bip(4'-NH)](Indazole3carbonyl(1-CH2COOH))[Sar]HD[dR]I[Tic]VHLCG-NH2; thioether N-13) had a half-maximal inhibitory concentration (IC50) below 50 nM.

`CC(C)C[C@@H]1NC(=O)[C@H](Cc2ccccn2)NC(=O)[C@H](C(C)C)NC(=O)[C@@H]2CCCN2C(=O)[C@H](C(C)C)NC(=O)[C@@H](CCCNC(=N)N)NC(=O)[C@H](CC(=O)O)NC(=O)[C@H](Cc2ccc(O)cc2)NC(=O)CN(C)C(=O)[C@H](Cc2ccc(-c3ccc(NC(=O)c4nn(CC(=O)O)c5ccccc45)cc3)cc2)NC(=O)[C@H](Cc2ccc(-c3ccc(C(=O)O)cc3)cc2)NC(=O)[C@H](CC2CCCCC2)NC(=O)CSC[C@@H](C(=O)NCC(N)=O)NC1=O` [Example 362] ({CH2CO}-[Cha][Bip(4'-COOH)][Bip(4'-NH)](Indazole3carbonyl(1-CH2COOH))[Sar]YD[dR]VPV[2Pal]LCG-NH2; thioether N-13) came in with a half-maximal inhibitory concentration (IC50) below 50 nM.

In turn, `CC(C)C[C@@H]1NC(=O)[C@H](Cc2ccc(O)cc2)NC(=O)[C@H](C(C)C)NC(=O)[C@@H]2CCCN2C(=O)[C@H](C(C)C)NC(=O)[C@@H](CCCNC(=N)N)NC(=O)[C@H](CC(=O)O)NC(=O)[C@@H]2CCCN2C(=O)CN(C)C(=O)[C@H](Cc2ccc(-c3ccc(NC(=O)c4nn(CC(=O)O)c5ccccc45)cc3)cc2)NC(=O)[C@H](Cc2ccc(-c3ccc(C(=O)O)cc3)cc2)NC(=O)[C@H](CC2CCCCC2)NC(=O)CSC[C@@H](C(=O)NCC(N)=O)NC1=O` [Example 363] ({CH2CO}-[Cha][Bip(4'-COOH)][Bip(4'-NH)](Indazole3carbonyl(1-CH2COOH))[Sar]PD[dR]VPVYLCG-NH2; thioether N-13) displayed an IC50 below 50 nM.

In turn, `CC[C@H](C)[C@@H]1NC(=O)[C@@H](CCCNC(=N)N)NC(=O)[C@H](CC(=O)O)NC(=O)[C@H](Cc2cnc[nH]2)NC(=O)CN(C)C(=O)[C@H](Cc2ccc(-c3ccc(NC(=O)c4nn(CC(=O)O)c5ccccc45)cc3)cc2)NC(=O)[C@H](Cc2ccc(-c3ccccc3)cc2)NC(=O)[C@H](CC2CCCCC2)NC(=O)CSC[C@@H](C(=O)NCC(N)=O)NC(=O)[C@H](CC(C)C)NC(=O)[C@H](Cc2cnc[nH]2)NC(=O)[C@H](C(C)C)NC(=O)[C@@H]2CCCN2C1=O` [Example 364] ({CH2CO}-[Cha][Bip][Bip(4'-NH)](Indazole3carbonyl(1-CH2COOH))[Sar]HD[dR]IPVHLCG-NH2; thioether N-13) came in with a 50% inhibitory concentration (IC50) below 50 nM.

Compound `CC(C)C[C@@H]1NC(=O)[C@H](CCCNC(=N)N)NC(=O)[C@H](C(C)C)NC(=O)[C@@H]2CCCN2C(=O)[C@H](C(C)C)NC(=O)[C@@H](CCCNC(=N)NCCc2ccccc2)NC(=O)[C@H](CC(=O)O)NC(=O)[C@@H]2CCCN2C(=O)CN(C)C(=O)[C@H](Cc2ccc(-c3ccc(NC(=O)c4nn(CC(=O)O)c5ccccc45)cc3)cc2)NC(=O)[C@H](Cc2ccc(-c3ccccc3)cc2)NC(=O)[C@H](CN2CCOCC2)NC(=O)CSC[C@@H](C(=O)NCC(N)=O)NC1=O` [Example 365] ({CH2CO}-[Ala(morpholin-4-yl)][Bip][Bip(4'-NH)](Indazole3carbonyl(1-CH2COOH))[Sar]PD[X51]VPVRLCG-NH2; thioether N-13) displayed an IC50 below 50 nM.

`CC(C)C[C@@H]1NC(=O)[C@H](CCCNC(=N)N)NC(=O)[C@H](C(C)C)NC(=O)[C@@H]2CCCN2C(=O)[C@H](C(C)C)NC(=O)[C@@H](CCCNC(=N)NCCc2cccc(O)c2)NC(=O)[C@H](CC(=O)O)NC(=O)[C@@H]2CCCN2C(=O)CN(C)C(=O)[C@H](Cc2ccc(-c3ccc(NC(=O)c4nn(CC(=O)O)c5ccccc45)cc3)cc2)NC(=O)[C@H](Cc2ccc(-c3ccccc3)cc2)NC(=O)[C@H](CN2CCOCC2)NC(=O)CSC[C@@H](C(=O)NCC(N)=O)NC1=O` [Example 366] ({CH2CO}-[Ala(morpholin-4-yl)][Bip][Bip(4'-NH)](Indazole3carbonyl(1-CH2COOH))[Sar]PD[X63]VPVRLCG-NH2; thioether N-13): the concentration for half-maximal inhibition (IC50) was below 50 nM.

For `CC[C@H](C)[C@@H]1NC(=O)[C@@H]2CCCN2C(=O)[C@H]([C@@H](C)CC)NC(=O)[C@@H](CCCNC(=N)N)NC(=O)[C@H](CC(=O)O)NC(=O)[C@H](Cc2ccccn2)NC(=O)CN(C)C(=O)[C@H](Cc2ccc(-c3ccc(NC(=O)c4ccccc4)cc3)cc2)NC(=O)[C@H](Cc2ccc(-c3ccccc3)cc2)NC(=O)[C@H](C(C)(C)C)NC(=O)CSC[C@@H](C(=O)NCC(N)=O)NC(=O)[C@H](CC(C)C)NC(=O)[C@H](Cc2cccc(C(N)=O)c2)NC1=O` [Example 367] ({CH2CO}-[Tle][Bip][Bip(4'-NHBz)][Sar][2Pal]D[dR]IPI[Phe(3-CONH2)]LCG-NH2; thioether N-13), the IC50 was below 50 nM.

`CC[C@H](C)[C@@H]1NC(=O)[C@@H](CCCNC(=N)N)NC(=O)[C@H](CC(=O)O)NC(=O)[C@H](Cc2cnc[nH]2)NC(=O)CN(C)C(=O)[C@H](Cc2ccc(-c3ccc(NC(=O)c4ccccc4)cc3)cc2)NC(=O)[C@H](Cc2ccc(-c3ccc(C(=O)O)cc3)cc2)NC(=O)[C@H](CC2CCCCC2)NC(=O)CSC[C@@H](C(=O)NCC(N)=O)NC(=O)[C@H](CC(C)C)NC(=O)[C@H](Cc2cnc[nH]2)NC(=O)[C@H](C(C)C)NC(=O)[C@@H]2Cc3ccccc3CN2C1=O` [Example 370] ({CH2CO}-[Cha][Bip(4'-COOH)][Bip(4'-NHBz)][Sar]HD[dR]I[Tic]VHLCG-NH2; thioether N-13) yielded a 50% inhibitory concentration (IC50) below 50 nM.

Still in this assay, the particulars now being: HEK-Blue-CD40L cells, NF-kB-driven secreted alkaline phosphatase reporter; TNFα 0.5 ng/ml; 18 h; read-out: TNF induced HEK-Blue assay IC50 value.
Regarding `CC[C@H](C)[C@@H]1NC(=O)[C@@H]2CCCN2C(=O)[C@H]([C@@H](C)CC)NC(=O)[C@@H](CCCNC(=N)N)NC(=O)[C@H](CC(=O)O)NC(=O)[C@H](Cc2ccccn2)NC(=O)CN(C)C(=O)[C@H](Cc2ccc(-c3ccc(NC(=O)c4cccc(C(=O)O)c4)cc3)cc2)NC(=O)[C@H](Cc2ccc(-c3ccccc3)cc2)NC(=O)[C@H](C(C)(C)C)NC(=O)CSC[C@@H](C(=O)NCC(N)=O)NC(=O)[C@H](CC(C)C)NC(=O)[C@H](Cc2cccc(C(N)=O)c2)NC1=O` [Example 368] ({CH2CO}-[Tle][Bip][Bip(4'-(3-HOOC-benzamido))][Sar][2Pal]D[dR]IPI[Phe(3-CONH2)]LCG-NH2; thioether N-13), the IC50 was below 50 nM.

In the case of `CC(C)C[C@@H]1NC(=O)[C@H](Cc2ccc(O)cc2)NC(=O)[C@H](C(C)C)NC(=O)[C@@H]2Cc3ccccc3CN2C(=O)[C@H](C(C)C)NC(=O)[C@@H](CCCNC(=N)N)NC(=O)[C@H](CC(=O)O)NC(=O)[C@@H]2CCCN2C(=O)CN(C)C(=O)[C@H](Cc2ccc(-c3ccc(NC(=O)c4cccc(OCC(=O)O)c4)cc3)cc2)NC(=O)[C@H](Cc2ccc(-c3ccc(C(=O)O)cc3)cc2)NC(=O)[C@H](CC2CCCCC2)NC(=O)CSC[C@@H](C(=O)NCC(N)=O)NC1=O` [Example 369] ({CH2CO}-[Cha][Bip(4'-COOH)][Bip(4'-NH)](Benzoyl(3-OCH2COOH))[Sar]PD[dR]V[Tic]VYLCG-NH2; thioether N-13), the IC50 fell in the range of 50 to 200 nM.

Turning to `CC[C@H](C)[C@@H]1NC(=O)[C@@H](CCCNC(=N)N)NC(=O)[C@H](CC(=O)O)NC(=O)[C@H](Cc2cnc[nH]2)NC(=O)CN(C)C(=O)[C@H](Cc2ccc(-c3ccc(NC(=O)c4cccc(C(=O)O)c4)cc3)cc2)NC(=O)[C@H](Cc2ccc(-c3ccc(C(=O)O)cc3)cc2)NC(=O)[C@H](CC2CCCCC2)NC(=O)CSC[C@@H](C(=O)NCC(N)=O)NC(=O)[C@H](CC(C)C)NC(=O)[C@H](Cc2cnc[nH]2)NC(=O)[C@H](C(C)C)NC(=O)[C@@H]2Cc3ccccc3CN2C1=O` [Example 371] ({CH2CO}-[Cha][Bip(4'-COOH)][Bip(4'-(3-HOOC-benzamido))][Sar]HD[dR]I[Tic]VHLCG-NH2; thioether N-13), the concentration for half-maximal inhibition (IC50) is below 50 nM.
